Data as given in US8993626B2, “Methods of treatment using sterculic acid” (The United States of America, as represented by the …, priority 2010, dated 2015).
Where two headings read alike, the source gives them in different places.

What was measured:
ARPE19 cells = experiment: Microelectronic cell sensor assay (RT-CES), 7KCh-induced cytotoxicity; conditions: 1 μM fatty acid + 15 μM 7KCh, serum free media
Protocol: 4×10^4 cells were seeded onto wells of 16× microtiter plates. […] Cell viability was determined as a cell index (CI) calculated from the impedance of each well automatically by the RT-CES system once per hr until the end of the experiment. The data was normalized at the point immediately prior to compound treatment.
RT-CES® System is a cell-based assay system that monitors cellular events by measuring the electronic impedance of sensor electrodes integrated on the bottom of microtiter E-Plates. The presence of the cells will lead to an increase in the electrode impedance. The more cells attached to the sensor, the higher the impedance that could be monitored with RT-CES.
1) Cells were cultivated in the ACEA's 16X E-plate device containing microelectrodes at the bottom of each well to measure contact area and electrical properties of adherent cells. […]
4) Cell growth was monitored periodically (every 1 hr) for indicated durations via calculation of a “cell index” (reflect to the surface area covered by the cells) in each well. […]
6) The sensor devices were put into the incubator again and the cells were continuously monitored cellular status changes.
7) Cell viability was determined as a cell index (CI) calculated from the impedance of each well automatically by the RT-CES system once per hr until the end of the experiment. […]

HUVEC [1] = experiment: Cell migration (chemotaxis) assay, Boyden chamber, VEGF as chemoattractant; assay type: cell-based
Protocol: Cell migration was assessed using the 48-well Boyden chamber and 8 μm pore size collagen-coated (10 μg/ml rat tail collagen; Collaborative Laboratories) polycarbonate filters (Osmonics, Inc). The bottom chamber wells received 29 μl of DMEM medium alone (baseline) or medium containing chemoattractant (VEGF). The top chambers received 45 μl of HUVEC cell suspension (1×10^6 cells/ml) prepared in DMEM+1% BSA with or without sterculic acid. After 5 h incubation at 37° C., the membrane was rinsed in PBS, fixed and stained Diff-Quick solutions. The filter was placed on a glass slide with the migrated cells facing down and cell on top were removed using Kimwipe. The testing was performed in 4 replicates and five fields were counted from each well. The data was plotted as mean migrated cells±SD. IC50 was calculated from the plotted data.

Renal Cancer, RXF-393 = experiment: NCI in vitro anti-cancer cell line screen (SRB); conditions: Homo sapiens, RXF 393, 48 h
Protocol: (§1) The human tumor cell lines used in the cancer screen panel were grown in RPMI 1640 medium containing 5% FBS and 2 mM L-glutamine. The cells were inoculated into 96-well microtiter plates in 100 μl at plating density ranging from 5000 to 40,000 cell/well. […] Following drug addition, the plates were incubated for an additional 48 h. The assay was terminated by the addition of cold 10% TCA. The supernatant was discarded, and the plates were washed five times with water and air dried. Sulforhodamine B (SRB) solution (100 μl) at 0.4% (w/v) in 1% acetic acid was added to each well, and plates were incubated for 10 min at room temperature. After staining, unbound dye was removed by washing five times with 1% acetic acid and the plates were air dried. Bound stain was subsequently solubilized with 10 mM trizma base, and the absorbance was read on an automated plate reader at a wavelength of 515 nm.
(§2) A sulforhodamine B (SRB) end point was used to calculate the median growth inhibition (GI50). GI50 refers to the concentration at which the drug inhibits tumor cell growth by 50%.

ARPE-19 cells [2] = experiment: ELISA of secreted VEGF, IL-6, IL-8 in conditioned medium; assay type: cell-based; conditions: 6 μM 7KCh alone or with 1 μM fatty acid, 48 hr
Protocol: FIGS. 16A-16E depict the secreted protein levels of (A) VEGF, (B) IL-6, and (C) IL-8 were measure by ELISA 48 hr after treatment with 6 μM 7KCh, 1 μM sterculic acid, 1 μM stearic acid, or the combinations of 7KCh with either sterculic acid or stearic acid. Error bars indicate the standard deviations. *p<0.05 comparing to 7KCh, n=3. Two-tailed Student's t-test. The expressions of GRP78 and CHOP were shown by immunoblots (D) 24 hr or (E) 48 hr after treatment with 8 μM 7KCh, 1 μM sterculic acid, 1 μM stearic acid, or the combinations of 7KCh with either sterculic acid or stearic acid.
ARPE-19 cells were seeded in 24-well plates with 1×10^5 cells per well and allowed to recover for 16-24 hr. Once confluency reached approximately 90%, the effect of the fatty acids against 7KCh-mediated cell death was examined 24 hr after incubation in serum-free medium with 12 μM 7KCh. Fatty acids were tested at 0.1, 0.5, 1, 5 and 10 μM concentrations. The effects of the fatty acids against 7KCh-mediated inflammation and ER stress were examined by incubating cells in 1 μM fatty acids with either 8 μM 7KCh (24 hr for quantitative real-time PCR (qRT-PCR), 24 and 48 hr for immunoblot), or 6 μM 7KCh for 48 hr (for ELISA). Three individual experiments were performed for each treatment with quadruplicate measurements performed for each experiment in 24-well plates.
The levels of secreted VEGF, IL-6, IL-8, and TNF-α in conditioned medium of ARPE-19 cell cultures were measured 48 hr after treatments of 6 μM 7KCh and 1 μM fatty acids using the Quantkine ELISA kits from R&D systems (Minneapolis, Minn.). The protein levels were measured in triplicates. The ELISA results were quantified using an Envision multilable plate reader (PerkinElmer, Covina, Calif.) and presented in percentage relative to the vehicle-only control.

[3] = system: Non-Small Cell Lung Cancer, NCI-H226; experiment: NCI in vitro anti-cancer cell line screen (SRB); conditions: Homo sapiens, NCI-H226, 48 h
Protocol: as §1, §2

HUVEC [4] = experiment: HUVEC growth inhibition assay (crystal violet); assay type: cell-based; conditions: for IC50: Homo sapiens
Protocol: HUVEC (1.5×10^3) are plated in a 96-well plate in […] of EBM-2 (Clonetic #CC3162). After 24 h (day 0), the test compound (100 μL) is added to each well at 2× the desired concentration (5-7 concentration levels) in EBM-2 medium. On day 0, one plate is stained with 0.5% crystal violet in 20% methanol for 10 minutes, rinsed with water, and air-dried. The remaining plates are incubated for 72 h at 37° C. After 72 h, plates are stained with 0.5% crystal violet in 20% methanol, rinsed with water, and air-dried. The stain is eluted with 1:1 solution of ethanol:0.1M sodium citrate (including day 0 plate), and absorbance is measured at 540 nm with an ELISA reader (Dynatech Laboratories). Day 0 absorbance is subtracted from the 72 h plates and data is plotted as percentage of control proliferation (vehicle treated cells). IC50 (drug concentration causing 50% inhibition) is calculated from the plotted data.

ARPE-19 cells [5] = experiment: qRT-PCR of cytokines in TNF-α treated cells; assay type: cell-based
Protocol: FIGS. 17A-17D depict the mRNA expressions of (A) IL-1β, (B) IL-8, (C) IκBα, and (D) GRP78 in response to 2 ng/ml TNF-α, 1 μM sterculic acid, 1 μM stearic acid, or the combinations of TNF-α with either sterculic acid or stearic acid. n=3. Error bars indicate the standard deviations.
Tumor necrosis factor-alpha (TNF-α, Roche Diagnostics, Indianapolis, Ind.) was diluted in PBS to make 10 μg/ml stock solution and stored at −20° C. In order to test the anti-inflammation effect of fatty acids against TNF-α, ARPE-19 cells were treated with 2 ng/ml of TNF-α for 24 hr in serum-free medium with or without 1 μM fatty acids. The mRNA expressions of cytokines were then examined using qRT-PCR. Each treatment was performed three times with quadruplicate measurements in each experiment, in 24-well plates.
The RNA was extracted using RNeasy Mini Kit (Qiagen, Valencia, Calif.). The reverse transcription was performed with reagents and kits from Invitrogen. Quantification of mRNA expression was performed using the Taqman gene expression assays and the following primers (VEGFa, Hs00173626_m1; IL-1β, Hs01555413_m1; IL-6, Hs00174131_m1; IL-8, Hs00174103_m1; IκBα, Hs00153283_m1; GRP78, Hs99999174_m1; CHOP, Hs01090850_m1; NOX2, Hs00166163_m1; NOX4, Hs01558199_m1; SCD, Hs00748952 s1; TNF-α, Hs00174128_m1; TGF-β1, Hs00998133_m1; GAPD, 4352934e). GAPD expression was used as an endogenous standard. All qRT-PCR experiments were measured in triplicates in an ABI 7500 Real-Time PCR Instrument (Applied Biosystems, Foster City, Calif.). The results of each treatment were normalized and presented in percentage relative to the vehicle-only control.

CCCCCCCCC1=C(CCCCCCCC(=O)O)C1 [sterculic acid, 8-(2-octacyclopropen-1-yl)octanoic acid]
protection from 7KCh induced cytotoxicity (cell index) (ARPE19 cells): markedly protected | cell toxicity at migration-inhibiting concentration (HUVEC [1]): without showing significant cell toxicity | concentration that significantly inhibited VEGF-induced endothelial cell migration (HUVEC [1]; 5 h): Less than 100 μM | GI50 (Renal Cancer, RXF-393): 10 µM | secreted IL-6 protein expression (ARPE-19 cells [2]): 1.4 fold | secreted IL-8 protein expression (ARPE-19 cells [2]): 1.1 fold | secreted VEGF protein expression (ARPE-19 cells [2]): 1.1 fold | GI50 [3]: 10 µM | apoptosis induction (HUVEC [4]; HUVEC): no apoptosis | IC50 (HUVEC [4]; HUVEC, 72 h, read-out: IC50 value of the anti-proliferative effect): ~11.7 µM | IC50 (HUVEC [4]; HUVEC proliferation, read-out: IC50 (drug concentration causing 50% inhibition)): 18.6 µM | induction of GRP78 mRNA expression (ARPE-19 cells [5]; 2 ng/ml TNF-α alone or with 1 μM fatty acid, 24 hr, FIG. 17D): small measurable effect | antagonist effect to the cytokine inductions by TNF-α (ARPE-19 cells [5]; 1 μM fatty acid + 2 ng/ml TNF-α, 24 hr): did not show any antagonist effect | antagonist effect to TNF-α at 5 μM (ARPE-19 cells [5]; 5 μM, data not shown): failed to antagonize
